In US9309242B2, “Substituted pyrido[2,3-b]pyrazines as FGFR kinase inhibitors” (priority 2011, dated 2016):
pIC50: −log10 of the molar value. Where a name gives a salt, the structure may show the parent alone. Read-outs that look alike come from different tables or passages of the source.

Legend:
[1] = target: T1, Ba/F3-FGFR3-transfected cells (Homo sapiens, UniProt P22607); assay: Ba/F3-FGFR3 (minus IL3) cellular proliferation assay, Alamar Blue; type: cell-based
T1 construct: BAF3-FGFR3 (MIN IL3) pIC50; other: minus IL3
In short: (§1)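 Ba/F3 cells transfected with FGFR3 were seeded at 20000 cells/well in phenol red-free RPMI-1640 with 10% FBS over compound in DMSO and kept 24 hours at 37° C, 5% CO2. Alamar Blue (resazurin) was then added for 4 hours and fluorescence read at ex 540/em 590 nm. The counterscreen repeated this with 10 ng/ml murine IL3.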

KDR (h) = KDR (h) (Homo sapiens, UniProt P35968); assay: KDR (VEGFR2) (enzymatic assay), TR-FRET; type: biochemical; conditions: read-out: VEGFR 2 (KDR) pIC50 (converted)
In short: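 First, kinase (150 ng/ml), Btn-Flt3 (500 nM), ATP (3 μM) and compound (1% DMSO) react 120 min at RT in pH 7.5 HEPES/6 mM MnCl2. Next, EDTA with Eu-anti-P-Tyr and SA-XL-665 stops it for 60 min. Finally, TR-FRET is read as RFU.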

FGFR2 (h) = FGFR2 (h) (Homo sapiens, UniProt P21802); assay: FGFR2 (enzymatic assay), TR-FRET; type: biochemical; conditions: enzymatic assay; average values if tested multiple times; read-out: FGFR 2 pIC50 (converted)
In short: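 Compound (1% DMSO final) was combined with FGFR2 (h), 150 ng/ml, plus 0.4 μM ATP and 500 nM biotin-Flt3 in Mn2+-containing HEPES buffer at pH 7.5.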

[2] = target: T2, Ba/F3-KDR-transfected cells (Homo sapiens, UniProt P35968); assay: Ba/F3-KDR (minus IL3) cellular proliferation assay, Alamar Blue; type: cell-based
T2 construct: BAF3-KDR (MIN IL3) pIC50; other: minus IL3
In short: (§2)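 Proliferation is measured as Alamar Blue relative fluorescence units following 24 h compound treatment of 20000 cells per well in 10% FBS medium. The IL3-supplemented run serves as a counterscreen under the same conditions.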

FGFR3 (h) = FGFR3 (h) (Homo sapiens, UniProt P22607); assay: FGFR3 (enzymatic assay), TR-FRET; type: biochemical; conditions: average values if tested multiple times, read-out: FGFR 3 pIC50 (converted)
Excerpt: Time-Resolved Fluorescence Resonance Energy Transfer (TR-FRET) signal (ex340 nm.

FGFR1 (h) = FGFR1 (h) (Homo sapiens, UniProt P11362); assay: FGFR1 (enzymatic assay), TR-FRET; type: biochemical; conditions: average values if tested multiple times, read-out: FGFR 1 pIC50 (converted)
[3] = system: Ba/F3-FGFR3-transfected cells; assay: Ba/F3-FGFR3 (plus IL3) cellular proliferation assay, counterscreen with 10 ng/ml murine IL3; type: cell-based; conditions: plus IL3 (10 ng/ml murine IL3, counterscreen); for IC50: read-out: BAF3-FGFR3 (PLUS IL3) pIC50 (converted)
In short: as §1

[4] = target: T3, Ba/F3-FGFR1-transfected cells (Homo sapiens, UniProt P11362); assay: Ba/F3-FGFR1 (minus IL3) cellular proliferation assay, Alamar Blue; type: cell-based
T3 construct: BAF3-FGFR1 (MIN IL3) pIC50; other: minus IL3
In short: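 Ba/F3 cells transfected with FGFR1 (20000 cells/well) were plated onto compound in phenol red-free RPMI-1640 with 10% FBS, 2 mM L-glutamine and gentamycin, then kept 24 h at 37 °C, 5% CO2. Alamar Blue (resazurin) was added for 4 h and fluorescence read at ex 540/em 590 nm.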

[5] = system: Ba/F3-FGFR1-transfected cells; assay: Ba/F3-FGFR1 (plus IL3) cellular proliferation assay, counterscreen with 10 ng/ml murine IL3; type: cell-based; conditions: plus IL3 (10 ng/ml murine IL3, counterscreen); for IC50: read-out: BAF3-FGFR1 (PLUS IL3) pIC50 (converted)
In short: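 Ba/F3-FGFR1 cells (20000/well) in RPMI-1640 with 10% FBS exposed to compound for 24 h at 37° C., 5% CO2, then Alamar Blue (resazurin) added for 4 h; fluorescence read at ex 540/em 590 nm. Counterscreen run identically with 10 ng/ml murine IL3.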

FGFR4 (h) = FGFR4 (h) (Homo sapiens, UniProt P22455); assay: FGFR4 (enzymatic assay), TR-FRET; type: biochemical; conditions: FGFR 4 pIC50, enzymatic assay; average values if tested multiple times
[6] = system: Ba/F3-KDR-transfected cells; assay: Ba/F3-KDR (plus IL3) cellular proliferation assay, counterscreen with 10 ng/ml murine IL3; type: cell-based; conditions: plus IL3 (10 ng/ml murine IL3, counterscreen)
In short: as §2

[7] = target: Ba/F3-FGFR4-transfected cells (Homo sapiens, UniProt P22455); assay: Ba/F3-FGFR4 cellular proliferation assay, Alamar Blue; type: cell-based
In short: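 Proliferation of Ba/F3-FGFR4-transfected cells is gauged by Alamar Blue (resazurin) fluorescence after 24 hours of compound treatment in phenol red free RPMI-1640 with 10% FBS.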

[8] = average values if tested multiple times

T3 sequence (P11362 whole entry, change not shown): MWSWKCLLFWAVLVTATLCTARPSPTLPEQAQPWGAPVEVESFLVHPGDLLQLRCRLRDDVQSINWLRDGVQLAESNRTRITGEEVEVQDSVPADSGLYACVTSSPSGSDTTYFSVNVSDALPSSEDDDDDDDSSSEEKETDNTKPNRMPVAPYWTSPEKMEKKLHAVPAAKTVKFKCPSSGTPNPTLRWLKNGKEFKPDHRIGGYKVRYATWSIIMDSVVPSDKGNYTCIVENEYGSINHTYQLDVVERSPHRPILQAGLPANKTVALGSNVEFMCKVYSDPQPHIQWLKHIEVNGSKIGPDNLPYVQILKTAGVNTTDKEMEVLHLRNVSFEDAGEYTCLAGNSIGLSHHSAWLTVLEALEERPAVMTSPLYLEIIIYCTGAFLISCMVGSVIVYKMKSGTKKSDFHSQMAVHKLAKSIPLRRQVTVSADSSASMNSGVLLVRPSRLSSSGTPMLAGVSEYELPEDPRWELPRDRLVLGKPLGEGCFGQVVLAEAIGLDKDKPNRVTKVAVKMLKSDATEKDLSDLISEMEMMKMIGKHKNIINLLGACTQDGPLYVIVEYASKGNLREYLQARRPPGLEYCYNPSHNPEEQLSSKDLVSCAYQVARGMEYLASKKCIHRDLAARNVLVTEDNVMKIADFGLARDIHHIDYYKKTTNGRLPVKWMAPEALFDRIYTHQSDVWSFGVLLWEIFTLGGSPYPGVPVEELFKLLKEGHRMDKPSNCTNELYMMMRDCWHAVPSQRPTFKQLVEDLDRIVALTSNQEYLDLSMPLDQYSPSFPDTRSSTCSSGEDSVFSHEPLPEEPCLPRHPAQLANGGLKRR
Chain of KDR (h) (P35968 20-1356): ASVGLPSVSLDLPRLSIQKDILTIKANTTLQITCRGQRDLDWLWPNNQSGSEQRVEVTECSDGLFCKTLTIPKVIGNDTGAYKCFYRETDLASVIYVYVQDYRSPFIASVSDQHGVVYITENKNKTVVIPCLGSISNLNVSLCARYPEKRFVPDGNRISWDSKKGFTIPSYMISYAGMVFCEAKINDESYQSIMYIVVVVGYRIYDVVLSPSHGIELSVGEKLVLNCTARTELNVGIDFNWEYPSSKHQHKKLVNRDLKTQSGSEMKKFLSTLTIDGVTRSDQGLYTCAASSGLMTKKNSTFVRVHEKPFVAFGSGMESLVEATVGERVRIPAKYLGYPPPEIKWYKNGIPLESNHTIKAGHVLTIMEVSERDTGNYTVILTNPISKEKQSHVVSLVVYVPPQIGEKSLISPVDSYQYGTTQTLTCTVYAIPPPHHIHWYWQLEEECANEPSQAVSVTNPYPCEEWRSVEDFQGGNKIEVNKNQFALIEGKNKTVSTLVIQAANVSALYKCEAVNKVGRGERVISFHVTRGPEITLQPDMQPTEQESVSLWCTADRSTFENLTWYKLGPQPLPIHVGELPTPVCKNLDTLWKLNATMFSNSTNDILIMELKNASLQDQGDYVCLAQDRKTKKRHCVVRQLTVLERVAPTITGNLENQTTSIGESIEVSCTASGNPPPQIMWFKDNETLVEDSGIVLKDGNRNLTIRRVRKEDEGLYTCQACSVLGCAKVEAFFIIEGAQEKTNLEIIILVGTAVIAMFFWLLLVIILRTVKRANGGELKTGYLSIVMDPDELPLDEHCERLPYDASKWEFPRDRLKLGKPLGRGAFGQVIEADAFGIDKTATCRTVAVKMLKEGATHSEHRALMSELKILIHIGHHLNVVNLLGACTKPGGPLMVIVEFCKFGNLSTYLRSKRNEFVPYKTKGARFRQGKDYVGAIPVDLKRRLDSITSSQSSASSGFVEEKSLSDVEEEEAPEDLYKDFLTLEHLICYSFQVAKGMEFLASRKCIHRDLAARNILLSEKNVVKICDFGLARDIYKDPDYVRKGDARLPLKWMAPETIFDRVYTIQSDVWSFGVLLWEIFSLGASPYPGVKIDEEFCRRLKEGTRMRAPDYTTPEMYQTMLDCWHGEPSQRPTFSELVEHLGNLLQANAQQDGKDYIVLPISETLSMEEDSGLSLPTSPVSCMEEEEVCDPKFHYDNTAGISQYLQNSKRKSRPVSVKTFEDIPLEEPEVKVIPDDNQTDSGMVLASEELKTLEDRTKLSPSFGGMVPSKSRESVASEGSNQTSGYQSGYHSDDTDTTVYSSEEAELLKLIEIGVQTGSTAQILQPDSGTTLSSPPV
T1 sequence (P22607 whole entry, change not shown): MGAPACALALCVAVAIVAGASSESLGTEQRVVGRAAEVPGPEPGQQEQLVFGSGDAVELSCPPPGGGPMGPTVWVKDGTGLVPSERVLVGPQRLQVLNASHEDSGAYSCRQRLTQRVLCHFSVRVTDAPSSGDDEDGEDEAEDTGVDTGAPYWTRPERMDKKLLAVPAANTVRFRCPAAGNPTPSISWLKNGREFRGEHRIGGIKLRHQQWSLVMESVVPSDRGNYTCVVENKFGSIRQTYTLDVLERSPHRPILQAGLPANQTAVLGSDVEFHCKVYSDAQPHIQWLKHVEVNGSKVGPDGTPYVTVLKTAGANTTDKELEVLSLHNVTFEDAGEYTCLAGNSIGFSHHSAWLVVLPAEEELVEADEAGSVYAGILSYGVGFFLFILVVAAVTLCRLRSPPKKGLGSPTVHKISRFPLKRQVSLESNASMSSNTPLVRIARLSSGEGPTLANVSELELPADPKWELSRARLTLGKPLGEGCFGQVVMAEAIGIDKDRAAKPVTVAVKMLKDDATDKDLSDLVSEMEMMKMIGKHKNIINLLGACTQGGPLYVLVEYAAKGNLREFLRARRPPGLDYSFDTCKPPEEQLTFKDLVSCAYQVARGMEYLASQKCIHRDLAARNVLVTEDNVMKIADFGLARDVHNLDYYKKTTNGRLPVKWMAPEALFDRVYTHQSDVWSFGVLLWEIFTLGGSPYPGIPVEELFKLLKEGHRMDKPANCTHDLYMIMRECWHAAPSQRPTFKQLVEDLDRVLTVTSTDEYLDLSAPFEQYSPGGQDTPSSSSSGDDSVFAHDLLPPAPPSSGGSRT
T2 sequence (P35968 whole entry, change not shown): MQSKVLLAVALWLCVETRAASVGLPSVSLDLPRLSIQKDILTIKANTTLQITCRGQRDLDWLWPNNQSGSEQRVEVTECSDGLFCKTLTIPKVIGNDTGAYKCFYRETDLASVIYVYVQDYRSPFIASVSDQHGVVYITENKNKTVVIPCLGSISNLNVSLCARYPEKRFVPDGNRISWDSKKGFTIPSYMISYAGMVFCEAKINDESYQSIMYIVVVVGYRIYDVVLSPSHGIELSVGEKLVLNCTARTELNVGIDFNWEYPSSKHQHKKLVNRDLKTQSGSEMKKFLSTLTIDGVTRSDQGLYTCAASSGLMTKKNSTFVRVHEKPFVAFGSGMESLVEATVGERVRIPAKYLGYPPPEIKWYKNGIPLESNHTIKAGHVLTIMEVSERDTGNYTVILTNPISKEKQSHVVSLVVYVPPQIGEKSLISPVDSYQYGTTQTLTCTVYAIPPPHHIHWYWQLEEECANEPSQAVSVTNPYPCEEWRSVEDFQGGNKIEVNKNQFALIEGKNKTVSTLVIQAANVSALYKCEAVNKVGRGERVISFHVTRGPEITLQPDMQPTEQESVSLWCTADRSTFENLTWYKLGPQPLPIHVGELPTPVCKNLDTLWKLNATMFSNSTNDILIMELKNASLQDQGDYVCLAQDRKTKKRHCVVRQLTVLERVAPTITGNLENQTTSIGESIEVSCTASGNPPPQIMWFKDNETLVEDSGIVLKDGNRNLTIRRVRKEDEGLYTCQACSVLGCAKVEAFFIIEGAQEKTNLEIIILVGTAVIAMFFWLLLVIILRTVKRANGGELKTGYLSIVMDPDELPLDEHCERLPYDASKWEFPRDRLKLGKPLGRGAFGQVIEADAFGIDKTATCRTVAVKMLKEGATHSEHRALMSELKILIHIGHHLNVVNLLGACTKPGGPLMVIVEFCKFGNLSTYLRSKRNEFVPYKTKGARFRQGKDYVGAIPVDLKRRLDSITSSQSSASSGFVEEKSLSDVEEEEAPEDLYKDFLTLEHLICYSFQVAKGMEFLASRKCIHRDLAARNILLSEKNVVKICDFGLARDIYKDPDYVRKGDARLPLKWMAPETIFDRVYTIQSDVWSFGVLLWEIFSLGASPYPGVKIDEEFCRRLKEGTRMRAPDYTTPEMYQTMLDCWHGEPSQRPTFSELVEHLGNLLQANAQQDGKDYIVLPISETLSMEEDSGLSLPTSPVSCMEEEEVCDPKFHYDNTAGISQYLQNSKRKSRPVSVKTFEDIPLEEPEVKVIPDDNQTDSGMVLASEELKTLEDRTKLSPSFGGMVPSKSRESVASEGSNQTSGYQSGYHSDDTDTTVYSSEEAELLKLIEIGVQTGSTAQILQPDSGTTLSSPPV
Chain of FGFR2 (h) (P21802 22-821): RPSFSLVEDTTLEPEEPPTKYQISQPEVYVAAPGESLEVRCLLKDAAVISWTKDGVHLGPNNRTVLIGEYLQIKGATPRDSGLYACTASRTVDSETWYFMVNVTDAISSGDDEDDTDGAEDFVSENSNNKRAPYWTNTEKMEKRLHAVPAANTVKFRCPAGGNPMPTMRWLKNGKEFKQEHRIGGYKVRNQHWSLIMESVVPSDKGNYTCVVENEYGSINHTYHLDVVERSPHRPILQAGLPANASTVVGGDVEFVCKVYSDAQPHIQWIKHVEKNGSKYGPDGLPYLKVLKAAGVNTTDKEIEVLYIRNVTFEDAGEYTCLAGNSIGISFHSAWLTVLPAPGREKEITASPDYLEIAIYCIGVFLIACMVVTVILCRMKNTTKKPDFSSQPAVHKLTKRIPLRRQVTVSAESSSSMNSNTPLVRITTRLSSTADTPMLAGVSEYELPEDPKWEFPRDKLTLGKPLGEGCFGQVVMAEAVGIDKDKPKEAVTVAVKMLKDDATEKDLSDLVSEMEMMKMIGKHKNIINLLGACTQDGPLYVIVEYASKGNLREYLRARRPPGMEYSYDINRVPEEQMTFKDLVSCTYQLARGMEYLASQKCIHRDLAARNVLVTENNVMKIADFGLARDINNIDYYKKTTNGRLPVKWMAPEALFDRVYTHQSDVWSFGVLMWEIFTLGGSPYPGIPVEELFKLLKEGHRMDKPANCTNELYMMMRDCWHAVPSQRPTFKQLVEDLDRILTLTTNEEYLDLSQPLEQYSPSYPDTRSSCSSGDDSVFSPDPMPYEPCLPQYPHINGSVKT

COc1cc(OC)cc(N(Cc2ncc[nH]2)c2ccc3ncc(-c4cnn(C)c4)nc3n2)c1 (as salt: hydrochloride) (hydrate or solvate) [Compound 24]
melting point: > 260 °C

COc1cc(OC)cc(N(CCN2CCOCC2)c2ccc3ncc(-c4cnn(C)c4)nc3n2)c1 (as salt: hydrochloride) (hydrate or solvate) [Compound 146]
melting point: 143 °C

COc1cc(OC)c(F)c(N(Cc2ncc[nH]2)c2ccc3ncc(-c4cnn(C)c4)nc3n2)c1 (as salt: lactate) [Compound 23]
melting point: 118 °C

COc1cc(OC)c(F)c(N(Cc2ncc[nH]2)c2ccc3ncc(-c4cnn(C)c4)nc3n2)c1 (as salt: phosphate) [Compound 23]
melting point: 175 °C

COc1cc(OC)cc(N(Cc2ncc[nH]2)c2ccc3ncc(-c4cnn(C)c4)nc3n2)c1 (as salt: phosphate) [Compound 24]
melting point: 253 °C

COc1cc(OC)c(F)c(N(Cc2ncc[nH]2)c2ccc3ncc(-c4cnn(C)c4)nc3n2)c1 (as salt: sulfate) [Compound 23]
melting point: 198 °C

COc1cc(OC)cc(N(Cc2ncc[nH]2)c2ccc3ncc(-c4cnn(C)c4)nc3n2)c1 (as salt: sulphate) [Compound 24]
melting point: 266 °C

COc1cc(OC)cc(N(Cc2ncc[nH]2)c2ccc3ncc(-c4cnn(C)c4)nc3n2)c1 (as salt: tartrate) [Compound 24]
melting point: 176 °C

CNCCN(c1ccc2ncc(-c3cnn(C)c3)nc2n1)c1c(F)c(OC)cc(OC)c1F (hydrate or solvate) [Compound 3]
melting point: 134 °C

COc1cc(OC)c(F)c(/N=c2\ccc3ncc(-c4cnn(C)c4)nc3n2CCCO)c1F (single isomer, unassigned) [Compound 17]
BAF3-FGFR3 (MIN IL3) pIC50 [1]: 8.6
IC50 (KDR (h); [8]): 3.98 nM
IC50 (FGFR2 (h)): 1.26 nM
BAF3-KDR (MIN IL3) pIC50 [2]: 6.8
melting point: 206 °C
IC50 (FGFR3 (h)): 0.398 nM
IC50 (FGFR1 (h)): 0.251 nM
IC50 [3]: > 10000 nM
BAF3-FGFR1 (MIN IL3) pIC50 [4]: 8.7
IC50 [5]: > 10000 nM
pIC50 (FGFR4 (h)): 9.30

CNCCn1/c(=N/c2c(F)c(OC)cc(OC)c2F)ccc2ncc(-c3cnn(C)c3)nc21 [Compound 4]
BAF3-FGFR3 (MIN IL3) pIC50 [1]: 6.9
IC50 (KDR (h); [8]): 63.1 nM
IC50 (FGFR2 (h)): 3.98 nM
BAF3-KDR (MIN IL3) pIC50 [2]: 5.4
melting point: 174 °C
IC50 (FGFR3 (h)): 3.16 nM
IC50 (FGFR1 (h)): 1.26 nM
IC50 [3]: > 10000 nM
BAF3-FGFR1 (MIN IL3) pIC50 [4]: 7.3
IC50 [5]: > 10000 nM
pIC50 (FGFR4 (h)): 8.10

COc1cc(OC)c(F)c(/N=c2\ccc3ncc(-c4cnn(C)c4)nc3n2CC2CCC(=O)N2)c1F (stereo not drawn) [Compound 47]
BAF3-FGFR3 (MIN IL3) pIC50 [1]: ~7.76
IC50 (KDR (h); [8]): 12.6 nM
IC50 (FGFR2 (h)): 1.41 nM
BAF3-KDR (MIN IL3) pIC50 [2]: 6.28
melting point: 169 °C
IC50 (FGFR3 (h)): ~0.933 nM
IC50 (FGFR1 (h)): 0.661 nM
BAF3-FGFR3 (PLUS IL3) pIC50 [3]: <5
BAF3-FGFR1 (MIN IL3) pIC50 [4]: 7.86
BAF3-FGFR1 (PLUS IL3) pIC50 [5]: <5
BAF3-KDR (PLUS IL3) pIC50 [6]: <5
BAF3-FGFR4 pIC50 [7]: 6.70
pIC50 (FGFR4 (h)): 8.84

COc1cc(OC)cc(N(CC2CCC(=O)N2)c2ccc3ncc(-c4cnn(C)c4)nc3n2)c1 (stereo not drawn) [Compound 54]
BAF3-FGFR3 (MIN IL3) pIC50 [1]: 6.83
IC50 (KDR (h); [8]): 66.1 nM
IC50 (FGFR2 (h)): 4.9 nM
BAF3-KDR (MIN IL3) pIC50 [2]: 5.39
melting point: 125 °C
IC50 (FGFR3 (h)): 3.02 nM
IC50 (FGFR1 (h)): 6.76 nM
BAF3-FGFR3 (PLUS IL3) pIC50 [3]: <5
BAF3-FGFR1 (MIN IL3) pIC50 [4]: 6.64
BAF3-FGFR1 (PLUS IL3) pIC50 [5]: <5
BAF3-KDR (PLUS IL3) pIC50 [6]: <5
BAF3-FGFR4 pIC50 [7]: 6.05
pIC50 (FGFR4 (h)): 7.76

COc1cc(OC)cc(N(CCNC(C)=O)c2ccc3ncc(-c4cnn(C)c4)nc3n2)c1 [Compound 235]
IC50 (KDR (h)): 79.4 nM
BAF3-KDR (MIN IL3) pIC50 [2]: 5.62
melting point: 193 °C
IC50 [3]: > 10000 nM
IC50 [5]: > 10000 nM
IC50 ([6]; read-out: BAF3-KDR (PLUS IL3) pIC50 (converted)): > 10000 nM
